From ChEMBL document CHEMBL4725243, “High-Throughput Screening for the Discovery of Enzyme Inhibitors” (J Med Chem, 2020)

What was measured:
[1] = Inhibition of Mycobacterium tuberculosis kanamycin resistance enzyme Eis preincubated for 10 mins followed by AcCoA addition and measured after 5 mins at interval of 30 sec for 20 mins by UV-Vis assay
[2] = Inhibition of Mycobacterium tuberculosis kanamycin resistance enzyme Eis after 5 mins in presence of AcCoA by Ellman's reagent based assay

Row | SMILES | IC50 [1] [nM] | IC50 [2] [nM]
1 | Cn1c2ccc(F)cc2c2nnc(SCCN3CCCCC3)nc21 | 30 | –
2 | O=C(C[n+]1ccn2cccc2c1-c1ccccc1)c1ccccc1 | – | 64
3 | Cc1ccc(C(=O)C[n+]2ccn3cccc3c2-c2ccc(F)cc2)cc1 | – | 80
